Where two headings read alike, the source gives them in different places.
Assays:
[1] = test system: adult dogs; conditions: cited from earlier work; for % of baseline at nadir (neutrophils) / Days to nadir (neutrophils): dogs
[2] = test system: CD20 antigen expressing human lymphoma cell line DAUDI; test: Binding of ^227Th labeled antibody to DAUDI human lymphoma cells; conditions: for Mean cpm bound per cell pellet, Unblocked: 2×10^7 DAUDI cells, two hours at 8° C., mean of a duplicate; for Mean cpm bound per cell pellet, Blocked: cells pre-saturated with 40 μg unlabeled rituximab; for Thorium-227 atoms bound per cell, Blocked: cells pre-saturated with unlabeled rituximab
Experimental: DAUDI cells were purchased from European Collection of Cell Cultures (ECACC), Salisbury, UK, and grown according to supplier's instructions using culture medium and supplement from Gibco (Paisley, Scotland, UK) and using 500 ml culture flasks (Cell Star, Greiner Bio-One GmbH, Frickenhausen, Germany). DAUDI cells (2×10^7 cells in 0.7 ml PBS) were used to study binding of ^227Th labeled rituximab in vitro. As control of nonspecific binding, DAUDI cells pre-saturated (blocked) with 40 μg unlabeled rituximab for 15 minutes were used. To the test tubes (Polystyrene culture test tubes, 12×75 mm, Elkay, Shrewsbury, Mass., USA) were added ^227Th labeled rituximab corresponding to 1.3, 5.3, or 26 μg/ml respectively. The experiment was performed in duplicate at each concentration level using unblocked and blocked cells. Incubation was performed for two hours at 8° C. After incubation, cell suspensions were counted for radioactivity (Crystal II Multidetector, Packard Instrument Company Inc. Downers Grove, Ill., USA) and the cells washed with 2 ml of 1% BSA (Albumin, Bovine Fraction V, Sigma Chemical Co., St. Louis, Mo., USA) in PBS (Gibco, Paisley, Scotland, UK) and centrifuged (Centrifuge 5810 R, Eppendorf AG, Hamburg, Germany) at 200 rpm for 5 minutes. The washing/centrifugation was repeated twice. Thereafter the cell pellets were counted for radioactivity. The results (each the mean of a duplicate) are set out in Table 3 below.

[3] = 13 kBq/kg single intravenous injection
[4] = 40 kBq/kg single intravenous injection
[5] = 120 kBq/kg single intravenous injection
[6] = 350 kBq/kg single intravenous injection

## [224Ra] [^224Ra, radium-224]
[1]; 350 kBq/kg
  Death caused by haematological dyscrasia resulting from bone marrow destruction, number of dogs: 3 dogs out of 8
[1]; [3]
  % of baseline at nadir (neutrophils): 60%
  Days to nadir (neutrophils): 30 days
[1]; [4]
  % of baseline at nadir (neutrophils): 70%
  Days to nadir (neutrophils): 10 days
[1]; [5]
  % of baseline at nadir (neutrophils): 20%
  Days to nadir (neutrophils): 10 days
[1]; [6]
  % of baseline at nadir (neutrophils): 4%
  Days to nadir (neutrophils): 10 days

## ^227Th-labeled rituximab
[2]; RIC conc. 1.3 μg/ml added
  Thorium-227 atoms bound per cell, Net specific bound: 1.7
  Thorium-227 atoms bound per cell, Unblocked: 1.9
  Mean cpm bound per cell pellet, Unblocked: 226 cpm
  Mean cpm bound per cell pellet, Blocked: 25 cpm
  Thorium-227 atoms bound per cell, Blocked: 0.2
[2]; RIC conc. 5.3 μg/ml added
  Thorium-227 atoms bound per cell, Net specific bound: 9.3
  Thorium-227 atoms bound per cell, Unblocked: 10.1
  Mean cpm bound per cell pellet, Unblocked: 1186 cpm
  Mean cpm bound per cell pellet, Blocked: 97 cpm
  Thorium-227 atoms bound per cell, Blocked: 0.8
[2]; RIC conc. 26.0 μg/ml added
  Thorium-227 atoms bound per cell, Net specific bound: 32.5
  Thorium-227 atoms bound per cell, Unblocked: 35.2
  Mean cpm bound per cell pellet, Unblocked: 4141 cpm
  Mean cpm bound per cell pellet, Blocked: 315 cpm
  Thorium-227 atoms bound per cell, Blocked: 2.7
[2]; on average over the three concentrations
  RIC bound to the unblocked vs. the blocked cells: about 12 times
[2]; unblocked vs. blocked cells
  Specific binding to the DAUDI cells: did bind specifically

From patent US20060228297A1, “Thorium-227 for use in radiotherapy of soft tissue disease” (priority 2003, published 2006)
